Experimental data as given in patent US9963463B2, “Urea-substituted indanes as P38 map kinase inhibitors” (TORRENT PHARMACEUTICALS LIMITED, priority 2014, dated 2018).

Biological target: T1, purified recombinant human p38 alpha MAPK (Homo sapiens, UniProt Q16539)
T1 construct: purchased Millipore, USA
Assay: Inhibition of p38 alpha MAPK activity, TR-FRET kinase assay
Type: biochemical
Conditions: Concentration 100 nM; read-out: P38α Inhibition
Method: Inhibition of p38 Alpha MAPK Activity: Time-Resolved Fluorescence Resonance Energy Transfer Kinase Standard Assay (TR-FRET Assay)
Compounds of present invention at various concentrations were premixed with DMSO. The experiment was initiated by mixing 0.5%-1.0% DMSO as vehicle/compounds with purified recombinant human p38 alpha MAPK (Millipore, USA) in the wells and 15 min incubation at room temperature. Thereafter, 30 nM of Biotinylated GST-ATF2 (Activation transcription Factor2) and 100 μM of ATP were added in to the wells containing reaction mixture, followed by reincubation for 60 minutes at RT. Reaction was terminated by addition of 10 mM of EDTA and detection reagent containing anti-phosphotheronine ATF2 antibody (PerkinElmer®, USA) labeled with europium chelate and APC (Allophycocyanin) labeled streptavidin, into the reaction mixture which was further incubated for 60 minutes at room temperature. The degree of phosphorylation of the substrate (GST-ATF2) was measured using Envision multimode reader (PerkinElmer®). Percentage inhibition of p38 kinase activity was calculated by determining ratio of specific europium 665 nm energy transfer signal to reference 615 nm signal.

T1 sequence (Q16539 whole entry): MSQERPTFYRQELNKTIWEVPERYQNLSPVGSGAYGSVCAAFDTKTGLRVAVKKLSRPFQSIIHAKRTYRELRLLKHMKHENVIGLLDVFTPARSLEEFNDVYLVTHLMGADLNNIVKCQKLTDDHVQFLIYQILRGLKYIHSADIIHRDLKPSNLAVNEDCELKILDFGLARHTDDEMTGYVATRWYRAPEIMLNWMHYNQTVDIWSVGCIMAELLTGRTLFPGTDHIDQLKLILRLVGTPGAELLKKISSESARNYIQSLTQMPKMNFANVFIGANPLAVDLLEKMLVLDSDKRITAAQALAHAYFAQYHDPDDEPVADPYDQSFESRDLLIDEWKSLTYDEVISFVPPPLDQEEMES

| Structure (SMILES) | inhibition at 0.1 µM [%] |
| --- | --- |
| CCS(=O)(=O)Nc1cc(C(C)(C)C)cc(NC(=O)Nc2ccc(OCCN3CCn4c(nnc4-c4ccccc4SC)C3)c3c2CCC3)c1OC [Compound 45, N-[5-tert-butyl-2-methoxy-3-({[7-(2-{3-[2-(methylsulfanyl)phenyl]-5,6-dihydro[1,2,4]triazolo[4,3-a]pyrazin-7(8H)-yl}ethoxy)-2,3-dihydro-1H-inden-4-yl]carbamoyl}amino)phenyl]ethanesulfonamide] | 80 to 100 |
| COc1c(NC(=O)Nc2ccc(OCCN3CCn4c(nnc4-c4ccc(SCCO)cc4)C3)c3c2CCC3)cc(C(C)(C)C)cc1NS(C)(=O)=O [Compound 47, N-(5-tert-butyl-3-{[(7-{2-[3-{4-[(2-hydroxyethyl)sulfanyl]phenyl}-5,6-dihydro[1,2,4]triazolo[4,3-a]pyrazin-7(8H)-yl]ethoxy}-2,3-dihydro-1H-inden-4-yl)carbamoyl]amino}-2-methoxyphenyl)methanesulfonamide] | 60 to 80 |

Same assay, conditions: Concentration 1 μM; read-out: P38α Inhibition

| Structure (SMILES) | inhibition at 1 µM [%] |
| --- | --- |
| CSc1ccccc1-c1nnc2n1CCN(CCOc1ccc(NC(=O)Nc3cc(C(C)(C)C)nn3-c3ccc(C)cc3)c3c1CCC3)C2 [Compound 13, 1-[3-tert-butyl-1-(4-methylphenyl)-1H-pyrazol-5-yl]-3-[7-(2-{3-[2-(methylsulfanyl)phenyl]-5,6-dihydro[1,2,4]triazolo[4,3-a]pyrazin-7(8H)-yl}ethoxy)-2,3-dihydro-1H-inden-4-yl]urea] | 80 to 100 |
| CCCSc1ccccc1-c1nnc2n1CCN(CCOc1ccc(NC(=O)Nc3cc(C(C)(C)C)cc(NS(C)(=O)=O)c3OC)c3c1CCC3)C2 [Compound 42, N-[5-tert-butyl-2-methoxy-3-({[7-(2-{3-[2-(propylsulfanyl)phenyl]-5,6-dihydro[1,2,4]triazolo[4,3-a]pyrazin-7(8H)-yl}ethoxy)-2,3-dihydro-1H-inden-4-yl]carbamoyl}amino)phenyl]methanesulfonamide] | 80 to 100 |
| CCOC(=O)c1c(NC(=O)C2CC2)sc2c1CCN(C(=O)COc1ccc(NC(=O)Nc3cc(C(C)(C)C)nn3-c3ccc(C)cc3)c3c1CCC3)C2 [Compound 54, ethyl 6-({[7-({[3-tert-butyl-1-(4-methylphenyl)-1H-pyrazol-5-yl]carbamoyl}amino)-2,3-dihydro-1H-inden-4-yl]oxy}acetyl)-2-[(cyclopropylcarbonyl)amino]-4,5,6,7-tetrahydrothieno[2,3-c]pyridine-3-carboxylate] | < 20 |
| CCCCN1CCN(CCOc2ccc(NC(=O)Nc3cc(C(C)(C)C)cc(NS(C)(=O)=O)c3OC)c3c2CCC3)CC1=O [Compound 44, N-{5-tert-butyl-3-[({7-[2-(4-butyl-3-oxopiperazin-1-yl)ethoxy]-2,3-dihydro-1H-inden-4-yl}carbamoyl)amino]-2-methoxyphenyl} methanesulfonamide] | 80 to 100 |
| CC(C)(C)c1cc(NC(=O)Nc2ccc(OCCN3CCN(CC4CC4)C(=O)C3)c3c2CCC3)n(-c2ccc(O)cc2)n1 [Compound 18, 1-[3-tert-butyl-1-(4-hydroxyphenyl)-1H-pyrazol-5-yl]-3-(7-{2-[4-(cyclopropylmethyl)-3-oxopiperazin-1-yl]ethoxy}-2,3-dihydro-1H-inden-4-yl)urea] | 80 to 100 |
| CC(C)(C)c1cc(NC(=O)Nc2ccc(OCC(=O)N3CCn4c(nnc4C(F)(F)F)C3)c3c2CCC3)n(-c2ccccc2)n1 [Compound 4, 1-(3-tert-butyl-1-phenyl-1H-pyrazol-5-yl)-3-(7-{2-oxo-2-[3-(trifluoromethyl)-5,6-dihydro[1,2,4]triazolo[4,3-a]pyrazin-7(8H)-yl]ethoxy}-2,3-dihydro-1H-inden-4-yl)urea] | 60 to 80 |
| COc1ccccc1-c1nnc2n1CCN(C(=O)COc1ccc(NC(=O)Nc3cc(C(C)(C)C)nn3-c3ccccc3)c3c1CCC3)C2 [Compound 5, 1-(3-tert-butyl-1-phenyl-1H-pyrazol-5-yl)-3-(7-{2-[3-(2-methoxyphenyl)-5,6-dihydro[1,2,4]triazolo[4,3-a]pyrazin-7(8H)-yl]-2-oxoethoxy}-2,3-dihydro-1H-inden-4-yl)urea] | 80 to 100 |
| Cc1ccc(-n2nc(C(C)(C)C)cc2NC(=O)Nc2ccc(OCCN3CCn4c(nnc4-c4cc(Cl)ccc4O)C3)c3c2CCC3)cc1 [Compound 38] | 80 to 100 |
| CCS(=O)(=O)Nc1cc(C(C)(C)C)cc(NC(=O)Nc2ccc(OCCN3CCn4c(nnc4-c4cc(Cl)ccc4O)C3)c3c2CCC3)c1OC [Compound 51, N-(5-tert-butyl-3-{[(7-{2-[3-(5-chloro-2-hydroxyphenyl)-5,6-dihydro[1,2,4]triazolo[4,3-a]pyrazin-7(8H)-yl]ethoxy}-2,3-dihydro-1H-inden-4-yl)carbamoyl]amino}-2-methoxyphenyl)ethanesulfonamide] | 80 to 100 |
| Cc1ccc(-n2nc(C(C)(C)C)cc2NC(=O)Nc2ccc(OCCN3CCn4c(nnc4C4CCCCC4)C3)c3c2CCC3)cc1 [Compound 68, 1-[3-tert-butyl-1-(4-methylphenyl)-1H-pyrazol-5-yl]-3-{7-[2-(3-cyclohexyl-5,6-dihydro[1,2,4]triazolo[4,3-a]pyrazin-7(8H)-yl)ethoxy]-2,3-dihydro-1H-inden-4-yl}urea] | 40 to 60 |
| CCc1ccc(-n2nc(C(C)(C)C)cc2NC(=O)Nc2ccc(OCCN3CCn4c(nnc4-c4ccccc4OC)C3)c3c2CCC3)cc1 [Compound 23, 1-[3-tert-butyl-1-(4-ethylphenyl)-1H-pyrazol-5-yl]-3-(7-{2-[3-(2-methoxyphenyl)-5,6-dihydro[1,2,4]triazolo[4,3-a]pyrazin-7(8H)-yl]ethoxy}-2,3-dihydro-1H-inden-4-yl)urea] | 80 to 100 |
| Cc1ccc(-n2nc(C(C)(C)C)cc2NC(=O)Nc2ccc(OCCN3CCn4c(nnc4-c4ccccc4OCCO)C3)c3c2CCC3)cc1 [Compound 30, 1-[3-tert-butyl-1-(4-methylphenyl)-1H-pyrazol-5-yl]-3-[7-(2-{3-[2-(2-hydroxyethoxy)phenyl]-5,6-dihydro[1,2,4]triazolo[4,3-a]pyrazin-7(8H)-yl}ethoxy)-2,3-dihydro-1H-inden-4-yl]urea] | 80 to 100 |
| COc1c(NC(=O)Nc2cc(C)c(OCCN3CCn4c(nnc4-c4cc(Cl)ccc4O)C3)c3c2CCC3)cc(C(C)(C)C)cc1NS(C)(=O)=O [Compound 73, N-(5-tert-butyl-3-{[(7-{2-[3-(5-chloro-2-hydroxyphenyl)-5,6-dihydro[1,2,4]triazolo[4,3-a]pyrazin-7(8H)-yl]ethoxy}-6-methyl-2,3-dihydro-1H-inden-4-yl)carbamoyl]amino}-2-methoxyphenyl)methanesulfonamide] | 40 to 60 |
| Cc1ccc(-n2nc(C(C)(C)C)cc2NC(=O)Nc2ccc(OCCN3CCN(Cc4ccccc4)C(=O)C3)c3c2CCC3)cc1 [Compound 16, 1-{7-[2-(4-benzyl-3-oxopiperazin-1-yl)ethoxy]-2,3-dihydro-1H-inden-4-yl}-3-[3-tert-butyl-1-(4-methylphenyl)-1H-pyrazol-5-yl]urea] | 80 to 100 |
| CSc1ccccc1-c1nnc2n1CCN(CCOc1ccc(NC(=O)Nc3cc(C(C)(C)C)nn3-c3ccc(O)c(Cl)c3)c3c1CCC3)C2 [Compound 24, 1-[3-tert-butyl-1-(3-chloro-4-hydroxyphenyl)-1H-pyrazol-5-yl]-3-[7-(2-{3-[2-(methylsulfanyl)phenyl]-5,6-dihydro[1,2,4]triazolo[4,3-a]pyrazin-7(8H)-yl}ethoxy)-2,3-dihydro-1H-inden-4-yl]urea] | 80 to 100 |
